Measured values taken from ChEMBL document CHEMBL1128892, “Pharmacological evaluation of UK-14,304 analogs at cloned human adrenergic receptors” (Bioorg Med Chem Lett, 1995).
Active and inactive are the calls of the source. The calls are words filed in the database; no cut-off is given here.

Tests used:
[1] = target: T1, Alpha-2C adrenergic receptor (Homo sapiens, UniProt P18825); assay: Alpha-2C adrenergic receptor agonistic potency as inhibition of forskolin-stimulated cyclic adenosine monophosphate synthesis; assay type: functional
T1 sequence (P18825 whole entry): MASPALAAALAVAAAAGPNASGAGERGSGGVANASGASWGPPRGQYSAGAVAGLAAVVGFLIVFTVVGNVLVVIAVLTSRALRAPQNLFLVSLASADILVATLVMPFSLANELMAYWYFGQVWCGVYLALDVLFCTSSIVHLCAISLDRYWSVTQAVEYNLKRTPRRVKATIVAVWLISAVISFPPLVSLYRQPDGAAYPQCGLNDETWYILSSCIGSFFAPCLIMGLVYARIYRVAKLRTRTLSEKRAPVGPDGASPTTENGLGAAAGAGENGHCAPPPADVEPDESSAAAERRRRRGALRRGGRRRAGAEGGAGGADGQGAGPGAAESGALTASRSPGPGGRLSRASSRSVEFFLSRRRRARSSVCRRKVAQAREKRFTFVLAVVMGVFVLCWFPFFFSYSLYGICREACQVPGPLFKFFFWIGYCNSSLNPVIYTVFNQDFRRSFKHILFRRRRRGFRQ

[2] = target: T2, Alpha-1B adrenergic receptor (Homo sapiens, UniProt P35368); assay: Binding affinity for human Alpha-1B adrenergic receptor from cultured LM(tk-) cells using [3H]prazosin
T2 sequence (P35368 whole entry): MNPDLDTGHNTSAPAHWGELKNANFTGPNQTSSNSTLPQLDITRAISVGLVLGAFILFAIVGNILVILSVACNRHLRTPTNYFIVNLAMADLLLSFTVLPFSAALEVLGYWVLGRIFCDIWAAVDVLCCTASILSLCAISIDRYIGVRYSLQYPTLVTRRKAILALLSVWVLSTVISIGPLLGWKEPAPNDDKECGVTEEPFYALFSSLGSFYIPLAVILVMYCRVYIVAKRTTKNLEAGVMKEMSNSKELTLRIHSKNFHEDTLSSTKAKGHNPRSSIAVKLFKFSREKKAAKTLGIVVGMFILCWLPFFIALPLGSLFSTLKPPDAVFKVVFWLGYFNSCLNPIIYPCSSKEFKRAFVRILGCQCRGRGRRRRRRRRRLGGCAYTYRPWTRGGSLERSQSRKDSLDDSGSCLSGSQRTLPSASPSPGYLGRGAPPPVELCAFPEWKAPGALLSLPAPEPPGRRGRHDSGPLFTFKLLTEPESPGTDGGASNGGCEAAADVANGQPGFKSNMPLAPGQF

[3] = target: T3, Alpha-1A adrenergic receptor (Homo sapiens, UniProt P35348); assay: Binding affinity for human Alpha-1A adrenergic receptor from cultured LM(tk-) cells using [3H]-prazosin
T3 sequence (P35348 whole entry): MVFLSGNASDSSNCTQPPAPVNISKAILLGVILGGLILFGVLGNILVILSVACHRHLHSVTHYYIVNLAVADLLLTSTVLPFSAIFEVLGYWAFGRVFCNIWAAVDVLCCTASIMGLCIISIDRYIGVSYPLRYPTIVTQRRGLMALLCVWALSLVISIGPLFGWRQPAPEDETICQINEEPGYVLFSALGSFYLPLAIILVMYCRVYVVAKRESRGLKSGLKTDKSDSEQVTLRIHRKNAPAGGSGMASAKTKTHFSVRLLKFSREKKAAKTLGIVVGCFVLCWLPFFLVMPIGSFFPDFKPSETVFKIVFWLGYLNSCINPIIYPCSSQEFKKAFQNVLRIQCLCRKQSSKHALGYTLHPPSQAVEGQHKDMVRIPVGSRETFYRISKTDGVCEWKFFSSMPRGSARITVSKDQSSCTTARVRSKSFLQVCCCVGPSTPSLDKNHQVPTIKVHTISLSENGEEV

[4] = target: T4, Alpha-2C adrenergic receptor (Homo sapiens) (UniProt P18825); assay: Inhibitory activity against Alpha-2C adrenergic receptor relative to norepinephrine
T4 sequence (whole entry): T1 sequence (P18825 whole entry)

[5] = target: T5, Alpha-1D adrenergic receptor (Homo sapiens, UniProt P25100); assay: Binding affinity for human Alpha-1D adrenergic receptor from cultured LM(tk-) cells using [3H]- prazosin
T5 sequence (P25100 whole entry): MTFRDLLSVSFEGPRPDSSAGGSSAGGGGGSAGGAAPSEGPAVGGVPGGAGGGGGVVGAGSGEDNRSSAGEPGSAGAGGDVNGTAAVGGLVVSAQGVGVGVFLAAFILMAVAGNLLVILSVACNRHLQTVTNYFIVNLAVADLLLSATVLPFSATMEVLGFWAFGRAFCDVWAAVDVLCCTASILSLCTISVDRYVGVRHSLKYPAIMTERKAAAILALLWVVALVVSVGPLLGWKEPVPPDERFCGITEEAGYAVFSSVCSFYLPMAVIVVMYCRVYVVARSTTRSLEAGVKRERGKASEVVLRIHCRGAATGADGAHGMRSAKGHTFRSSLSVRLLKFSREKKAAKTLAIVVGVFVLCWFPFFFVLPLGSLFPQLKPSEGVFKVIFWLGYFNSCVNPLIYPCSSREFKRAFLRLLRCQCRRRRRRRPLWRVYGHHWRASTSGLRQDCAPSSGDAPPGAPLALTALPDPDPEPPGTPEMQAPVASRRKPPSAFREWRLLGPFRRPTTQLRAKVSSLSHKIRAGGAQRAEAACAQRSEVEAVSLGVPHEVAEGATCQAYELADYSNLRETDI

[6] = target: T1, Alpha-2C adrenergic receptor; assay: Binding affinity for human Alpha-2C adrenergic receptor from cultured LM(tk-) cells using [3H]- prazosin
[7] = target: T6, Alpha-2A adrenergic receptor (Homo sapiens) (UniProt P08913); assay: Inhibitory activity against Alpha-2A adrenergic receptor relative to norepinephrine
T6 sequence (whole entry): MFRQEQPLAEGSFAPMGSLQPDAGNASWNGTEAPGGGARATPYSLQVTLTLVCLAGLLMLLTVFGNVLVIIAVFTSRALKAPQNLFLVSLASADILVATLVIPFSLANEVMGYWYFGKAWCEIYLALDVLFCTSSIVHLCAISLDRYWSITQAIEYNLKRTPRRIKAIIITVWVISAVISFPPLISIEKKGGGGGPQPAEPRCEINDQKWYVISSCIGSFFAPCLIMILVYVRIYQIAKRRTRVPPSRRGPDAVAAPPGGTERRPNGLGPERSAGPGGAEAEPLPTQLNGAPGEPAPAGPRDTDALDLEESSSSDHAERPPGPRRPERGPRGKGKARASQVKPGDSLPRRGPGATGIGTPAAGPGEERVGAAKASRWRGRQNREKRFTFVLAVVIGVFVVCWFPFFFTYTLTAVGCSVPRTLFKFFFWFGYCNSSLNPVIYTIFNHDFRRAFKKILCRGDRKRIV

[8] = target: T7, Alpha-2B adrenergic receptor (Homo sapiens, UniProt P18089); assay: Alpha-2B adrenergic receptor agonistic potency as inhibition of forskolin-stimulated cyclic adenosine monophosphate synthesis; assay type: functional
T7 sequence (P18089 whole entry): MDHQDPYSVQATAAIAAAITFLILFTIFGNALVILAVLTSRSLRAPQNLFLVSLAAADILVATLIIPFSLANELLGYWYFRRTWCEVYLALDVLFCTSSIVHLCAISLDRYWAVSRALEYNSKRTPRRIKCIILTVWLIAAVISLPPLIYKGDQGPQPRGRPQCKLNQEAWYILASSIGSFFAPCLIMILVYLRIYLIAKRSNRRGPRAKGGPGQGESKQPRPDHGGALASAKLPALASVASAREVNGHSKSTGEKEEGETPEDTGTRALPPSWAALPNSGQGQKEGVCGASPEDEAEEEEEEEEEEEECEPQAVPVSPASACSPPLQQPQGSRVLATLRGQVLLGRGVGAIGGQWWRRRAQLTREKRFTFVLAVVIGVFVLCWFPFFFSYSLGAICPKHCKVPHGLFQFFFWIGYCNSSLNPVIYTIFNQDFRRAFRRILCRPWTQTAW

[9] = target: T8, Alpha-2A adrenergic receptor (Homo sapiens, UniProt P08913); assay: Binding affinity for human Alpha-2A adrenergic receptor from cultured LM(tk-) cells using [3H]rauwolscine
T8 sequence (P08913 whole entry): T6 sequence (whole entry)

[10] = target: T8, Alpha-2A adrenergic receptor; assay: Alpha-2A adrenergic receptor agonistic potency as inhibition of forskolin-stimulated synthesis of cyclic adenosine monophosphate; assay type: functional
[11] = target: T7, Alpha-2B adrenergic receptor; assay: Binding affinity for human Alpha-2B adrenergic receptor from cultured LM(tk-) cells using [3H]- prazosin
[12] = target: T6, Alpha-2A adrenergic receptor (Homo sapiens); assay: Alpha-2A adrenergic receptor agonistic potency as inhibition of forskolin-stimulated cyclic adenosine monophosphate synthesis at 100 uM; Not active; assay type: functional
[13] = target: T4, Alpha-2C adrenergic receptor (Homo sapiens); assay: Alpha-2C adrenergic receptor agonistic potency as inhibition of forskolin-stimulated cyclic adenosine monophosphate synthesis at 100 uM; Not active; assay type: functional
[14] = target: T6, Alpha-2A adrenergic receptor (Homo sapiens); assay: Inhibitory activity against Alpha-2A adrenergic receptor relative to norepinephrine at 100 uM; Not active
[15] = target: T9, Alpha-2B adrenergic receptor (Homo sapiens) (UniProt P18089); assay: Inhibitory activity against Alpha-2B adrenergic receptor relative to norepinephrine at 100 uM; Not active
T9 sequence (whole entry): T7 sequence (P18089 whole entry)

[16] = target: T4, Alpha-2C adrenergic receptor (Homo sapiens); assay: Inhibitory activity against Alpha-2C adrenergic receptor relative to norepinephrine at 100 uM; Not active
[17] = target: T9, Alpha-2B adrenergic receptor (Homo sapiens); assay: The Alpha-2B adrenergic receptor agonistic potency for its ability to inhibit forskolin-stimulated synthesis of cyclic adenosine monophosphate at 100 uM concentration; Not active; assay type: functional
[18] = target: T7, Alpha-2B adrenergic receptor; assay: Binding affinity for human Alpha-2B adrenergic receptor from cultured Y-1 cells using [3H]rauwolscine; assay type: cell-based
[19] = target: T9, Alpha-2B adrenergic receptor (Homo sapiens); assay: Inhibitory activity against alpha-2B adrenoceptor relative to norepinephrine at 100 uM; Not active
[20] = target: T9, Alpha-2B adrenergic receptor (Homo sapiens); details: 100 uM
[21] = target: T7, Alpha-2B adrenergic receptor; assay: Binding affinity for human alpha-2B adrenoceptor from cultured Y-1 cells using [3H]rauwolscine; assay type: cell-based
[22] = target: T4, Alpha-2C adrenergic receptor (Homo sapiens); details: 100 uM

Compound | EC50 [1] [nM] | Ki [2] [nM] | Ki [3] [nM] | Intrinsic activity [4] | Ki [5] [nM] | Ki [6] [nM] | Intrinsic activity [7] | Ki [9] [nM] | EC50 [10] [nM] | Intrinsic activity [15] | Intrinsic activity [16] | Log EC50 [17] | Ki [18] [nM] | also measured
Cc1c(NC2=NCCN2)ccc2nccnc12 | 14.1 | 3310 | 1480 | 1 | 562 | 28.2 | 1 | 7.24 | 1.2 | – | – | – | – | EC50 [8]: 77.6 nM; Ki [11]: 8.91 nM
Brc1c(NC2=N[C@@H]3CCCC[C@@H]3N2)ccc2nccnc12 | – | 105000 | 14100 | – | 41700 | 11500 | – | 14800 | – | inactive | inactive | inactive | 18200 | Log EC50 [12]: inactive; Log EC50 [13]: inactive; Intrinsic activity [14]: inactive
Ic1c(NC2=NCCN2)ccc2nccnc12 | 55 | 1910 | 977 | 1 | 282 | 407 | 1 | 6.76 | 11.5 | – | – | – | – | Intrinsic activity [19]: inactive; Log EC50 [20]: inactive; Ki [21]: 42.7 nM
CC1CN=C(Nc2ccc3nccnc3c2Br)N1 (stereo unspecified) | 832 | > 100000 | > 100000 | 0.8 | 5010 | 646 | 0.8 | 3800 | 15800 | inactive | – | inactive | 3240 | –
Brc1c(NC2=NCCS2)ccc2nccnc12 | – | 60300 | 21400 | – | 27500 | 28200 | 0.9 | 10200 | 2750 | inactive | inactive | inactive | 17400 | Log EC50 [13]: inactive
c1cnc2cc(NC3=NCCN3)ccc2n1 | – | 3240 | 18200 | – | 12300 | 1410 | – | 309 | – | inactive | inactive | inactive | 219 | Log EC50 [12]: inactive; Intrinsic activity [14]: inactive; Log EC50 [22]: inactive
Clc1c(NC2=NCCN2)ccc2nccnc12 | 30.9 | 10500 | 5130 | 1 | 2400 | 195 | 1 | 37.2 | 2.34 | – | – | – | 69.2 | EC50 [8]: 174 nM
Brc1c(NC2=NCCN2)ccc2nccnc12 [BRIMONIDINE] | – | 5370 | – | 1 | 933 | – | 1 | – | – | – | – | – | – | –
Cc1cnc2c(Br)c(NC3=NCCN3)ccc2n1 | 832 | > 100000 | > 100000 | 0.8 | 5010 | 646 | 1 | 74.1 | 851 | inactive | – | inactive | 324 | –
Brc1c(NC2=NCCN2)ccc2c1NCCN2 | 105 | 4370 | 1120 | 1 | 2690 | 214 | 1 | 6.46 | 2.82 | – | – | – | 49 | EC50 [8]: 891 nM
Brc1c(NC2=NCCO2)ccc2nccnc12 | – | 141000 | 91200 | – | 102000 | 49000 | – | 26300 | – | inactive | inactive | inactive | 85100 | Log EC50 [12]: inactive; Log EC50 [13]: inactive; Intrinsic activity [14]: inactive
